From patent US20120172368A1, “Bis-Benzimidazole Derivatives” (priority 2009, published 2012)

tested on: HCV type 1b replicon in Huh-7 luc/neo (Huh-Luc) cells; experiment: HCV replicon assay (Huh-Luc, luciferase readout); format: cell-based; details: Hepatitis C virus, Huh-7, 72 h, three days incubation, luciferase activity, read-out: HCV-REP-HUH-LUC_EC50
Excerpt: The compounds of formula (I) were examined for inhibitory activity in the HCV replicon. This cellular assay is based on a bicistronic expression construct, as described by Lohmann et al. (1999) Science vol. 285 pp. 110-113 with modifications described by Krieger et al. (2001) Journal of Virology 75: 4614-4624, in a multi-target screening strategy.
In essence, the method was as follows:
The assay utilized the stably transfected cell line Huh-7 luc/neo (hereafter referred to as Huh-Luc). This cell line harbors an RNA encoding a bicistronic expression construct comprising the wild type NS3-NS5B regions of HCV type 1b translated from an Internal Ribosome Entry Site (IRES) from encephalomyocarditis virus (EMCV), preceded by a reporter portion (FfL-luciferase), and a selectable marker portion (neoR, neomycine phosphotransferase). The construct is flanked by 5′ and 3′ NTRs (non-translated regions) from HCV type 1b. Continued culture of the replicon cells in the presence of G418 (neoR) is dependent on the replication of the HCV RNA. The stably transfected replicon cells that express HCV RNA, which replicates autonomously and to high levels, encoding inter alia luciferase, were used for screening the antiviral compounds.
The replicon cells were plated in 384 well plates in the presence of the test and control compounds which were added in various concentrations. Following an incubation of three days, HCV replication was measured by assaying luciferase activity (using standard luciferase assay substrates and reagents and a Perkin Elmer ViewLux™ ultraHTS microplate imager). Replicon cells in the control cultures have high luciferase expression in the absence of any inhibitor. The inhibitory activity of the compound on luciferase activity was monitored on the Huh-Luc cells, enabling a dose-response curve for each test compound. EC50 values were then calculated, which represent the amount of compound required to decrease the level of detected luciferase activity by 50%, or more specifically, to reduce the ability of the genetically linked HCV replicon RNA to replicate.

SMILES | EC50 [nM]
COC(=O)N[C@@H](C(=O)N1CCC[C@H]1c1nc2cc(-c3ncc(-c4ccc5nc([C@@H]6CCCN6C(=O)[C@H](NC(=O)OC)c6ccccc6)[nH]c5c4)cn3)ccc2[nH]1)c1ccccc1 [Compound 5] | < 0.015
COC(=O)N[C@H](C(=O)N1CCC[C@H]1c1nc2cc(-c3ccc(-c4ccc5nc([C@@H]6CCCN6C(=O)[C@@H](NC(=O)OC)C(C)C)[nH]c5c4)nn3)ccc2[nH]1)C(C)C [Compound 1] | 0.13
COC(=O)N[C@H](C(=O)N1CCC[C@H]1c1nc2ccc(-c3ccc(-c4ccc5nc([C@@H]6CCCN6C(=O)[C@@H](NC(=O)OC)[C@@H](C)OC)[nH]c5c4)nc3)cc2[nH]1)[C@@H](C)OC [Compound 9] | 0.31
COC(=O)N[C@H](C(=O)N1CCC[C@H]1c1nc2cc(-c3ncc(-c4ccc5nc([C@@H]6CCCN6C(=O)[C@@H](NC(=O)OC)C(C)C)[nH]c5c4)cn3)ccc2[nH]1)C(C)C [Compound 4] | 0.03
COC(=O)N[C@H](C(=O)N1CCC[C@H]1c1nc2cc(-c3ncc(-c4ccc5nc([C@@H]6CCCN6C(=O)[C@@H](NC(=O)OC)C6CC6)[nH]c5c4)cn3)ccc2[nH]1)C1CC1 [Compound 7] | 0.059
COC(=O)N[C@@H](C(=O)N1CCC[C@H]1c1nc2cc(-c3ccc(-c4ccc5nc([C@@H]6CCCN6C(=O)[C@H](NC(=O)OC)c6ccccc6)[nH]c5c4)nn3)ccc2[nH]1)c1ccccc1 [Compound 6] | 0.045
COC(=O)N[C@H](C(=O)N1CCC[C@H]1c1nc2cc(-c3ncc(-c4ccc5nc([C@@H]6CCCN6C(=O)[C@@H](NC(=O)OC)[C@@H](C)OC)[nH]c5c4)cn3)ccc2[nH]1)[C@@H](C)OC [Compound 3] | 0.13
